One data set relates to Homo sapiens. Briefly: (§1) Pharmacokinetic parameters for Sildernafil following oral administration of Sildernafil citrate tablets (Viagra). Type of data set: ADME, organism-based. The following applies: in vivo, po, dosed compound id 36, dosed compound name SILDERNAFIL CITRATE, tissue Plasma.
A short description of data set [1]: as §1. Format: ADME, organism-based. The following applies: human, in vivo, dosed compound id 36, dosed compound name SILDERNAFIL CITRATE, tissue Plasma.

A word on the Tmax: it is the time from dosing to the highest level. A word on the bioavailability: it is the share of a dose that reaches the circulation, judged against a reference dose that is usually intravenous. Read a high bioavailability as good availability. As to `CCCc1nn(C)c2c(=O)[nH]c(-c3cc(S(=O)(=O)N4CCN(C)CC4)ccc3OCC)nc12.O=C(O)CC(O)(CC(=O)O)C(=O)O` [SILDENAFIL CITRATE], the Vss in the data set with Homo sapiens is on record as 105 L. The Tmax in data set [1] (dietary status Fasting) turned out to be 1 h. Besides, in data set [1], the bioavailability amounted to 41%.
